The values that follow come from paper PMC9569529, “Safe and Efficient Sigma1 Ligand: A Potential Drug Candidate for Multiple Sclerosis” (International Journal of Molecular Sciences, 2022).

Data set [1] has as its system S. typhimurium TA98. Briefly: Ames test. The conditions noted are these: 7i 40 µg/plate. A general note: The Ames test uses bacterial strains that need an amino acid and regain growth without it when mutated back.
Data set [2] deals with S. typhimurium TA1535. The conditions noted are these: +S9; 7i 40 µg/plate; positive control 2-anthramine 0.5.
For data set [3], the system named is S. typhimurium TA100. Conditions: +S9; 7i 40 µg/plate; positive control 2-anthramine 0.5.
The subject of data set [4] is S. typhimurium TA1537. Briefly: Ames test. The conditions noted are these: 7i 40 µg/plate.
Data set [5] has as its system experimental autoimmune encephalomyelitis (EAE). Details: method as in PMID 25521311. The conditions noted are these: BD-1047 alone; cited from earlier work.
For data set [6], the system named is TK6 cells. Conditions: human.
Description: The frequency of micronucleated (MN) cells was determined out of at least 2000 mononucleated cells.
Data set [7] concerns dizocilpine-induced learning deficits. Nature of the data set: Dizocilpine-induced learning deficits, Y-maze spontaneous alternation. It is filed as in vivo, male Swiss mice. The conditions noted are these: 3 mg/kg i.p., alone. On the procedure: (§1) The activity of compound 7i was evaluated in regard to its ability to reverse dizocilpine-induced learning deficits. Two behavioral tests were performed by Amylgen (Montferrier-sur-Lez, France) on male Swiss mice (aged 6–9 weeks). All compounds (7i and controls) were intraperitoneally injected.
(§2) Animals were tested for spontaneous alternation performance in the Y-maze, an index of spatial working memory. Made of grey polyvinylchloride, the Y-maze has an arm which is 40 cm long, 13 cm high and 3 cm wide at the bottom and 10 cm wide at the top, converging at an equal angle. Each mouse was placed at the end of one arm and allowed to move freely through the maze during an 8-min session. The series of arm entries, including possible returns into the same arm, were checked visually. An alternation was defined as entries into all three arms on consecutive occasions. The number of maximum alternations was therefore the total number of arm entries minus two, and the percentage of alternation was calculated as: (actual alternations/maximum alternations) × 100. Parameters included the percentage of alternation (memory index) and the total number of arm entries (exploration index). Animals showing extreme behavior (alternation < 20% or >90% or number of arm entries < 10) are usually discarded from the calculations. […] Step-through latency (the latency in time spent to enter the dark compartment) and the number of vocalizations were recorded. […] Step-through latency was recorded up to 300 s. When either the mouse entered the dark compartment or 300 s had elapsed (they were therefore manually placed in it), escape latency (latency to exit from the dark compartment) was recorded with a value of up to 300 s. […]

Data set [8] has as its system S1R–BiP complex. Nature of the data set: S1R-BiP dissociation assay in CHO cells (co-IP, ELISA). Type of data set: cell-based. The conditions noted are these: for effect on S1R–BiP association: 10 µM, 30-min incubation. On the procedure:
The activity of compound 7i was evaluated in regard to its ability to dissociate the S1R–BiP complex. The S1R–BiP dissociation assay was performed by Amylgen (Montferrier-sur-Lez, France) as described in [13, 79]. Briefly, CHO cells were treated with test compounds for 30 min (37 °C). Crosslinking was performed with dithiobis succinimidyl propionate (DSP; Thermoscientific, Waltham, MA, USA). Lysis was performed after incubation for 15 min on ice. After centrifugation, supernatants were incubated overnight (4 °C) with the S1R antibody (Abcam, Cambridge, UK). Lysates were incubated with Sepharose Protein-A (Invitrogen). After the first centrifugation, the pellet was resuspended in radioimmunoprecipitation assay (RIPA) buffer. After a second centrifugation, the pellet was resuspended in 2× sample buffer/bMCE buffer. After the third centrifugation, supernatants were analyzed for BiP immunoreactivity (SEC343Mu ELISA, USCNK Life Sciences, Wuhan, China).
A general note: In an ELISA, binding on a coated surface is turned into a signal by an enzyme label.

The test system of data set [9] is dizocilpine-induced learning deficits. Briefly: Dizocilpine-induced learning deficits, step-through passive avoidance. Conditions: 3 mg/kg i.p., alone. Type of data set: in vivo, male Swiss mice. As to the method: as §1, §2
Data set [10] has as its system QT interval. Nature of the data set: ECG QT interval analysis under isoflurane anesthesia. The conditions noted are these: for QT Interval Basal / QT Interval 3 min / QT Interval 6 min / QT Interval 10 min: in ms (unit assumed); for QT Interval 3 min: 3 min after injection; for QT Interval 6 min: 6 min after injection; for QT Interval 10 min: 10 min after injection.
Description: Four electrodes were inserted subcutaneously in the mouse limbs. Electrical signals were recorded with a Powerlab (Ad instruments) and analyzed with LabChart Pro software (v8.1.19).
Heart rate and PR, QRS and QT intervals were measured as described in Supplementary Figure S3.
[11] abbreviates: +S9, positive control 2-anthramine 0.5.

Molecules are shown by their SMILES.

For `Nc1ccc2cc3ccccc3cc2c1` [2-anthramine, reference compound], the “Ames TA98 +S9 (Mean revertants/well per title)” value in data set [1] (setting [11]) was 36.0. Further, the “Ames TA1535 +S9 (Mean revertants/well per title)” value in data set [2] came out at 26.9. For the same compound, the “Ames TA100 +S9 (Mean revertants/well per title)” value in [3] is recorded as 6.0. Further, the “Ames TA1537 +S9 (Mean revertants/well per title)” value in data set [4] (setting [11]) came to 27.6.

`O=[N+]([O-])c1ccc2c(c1)Cc1ccccc1-2` [2-nitrofluorene, reference compound]: the “Ames TA98 −S9 (Mean revertants/well per title)” value in data set [1] (−S9, positive control 2-nitrofluorene 0.5) is given as 23.1.

As for `Nc1c2ccccc2nc2ccccc12` [9-amino-acridine, reference compound], the “Ames TA1537 −S9 (Mean revertants/well per title)” value in data set [4] (−S9, positive control 9-amino-acridine 1.56) was 8.4.

Take `CN(C)CCN(C)CCc1ccc(Cl)c(Cl)c1` [BD-1047]: the “effect on EAE development, alone” value in data set [5] is “no significant effect”.

On to `O=P1(N(CCCl)CCCl)NCCCO1` (centres unmarked) [Cyclophosphamide], for which, in data set [6], the “MN/2 × 10^3 Cells” value was 35.5 and the “RS (%)” value amounted to 88.3%.

With `CCCN(CCC)CCc1ccc(OC)c(OCCc2ccccc2)c1` [NE-100, reference compound], the “effect by itself in Y-maze” value in data set [7] was “devoid of any effect”. Further, in data set [8], the “effect on S1R–BiP association” value is reported as “no effect”. Besides, the “effect by itself in passive avoidance” value in data set [9] is “devoid of any effect”.

Turning to `O=C(OCCN1CCOCC1)C1(c2ccccc2)CCCCC1` [PRE-084, reference compound], the “effect on S1R–BiP association” value in [8] is reported as “significantly causes the dissociation”. In addition, in data set [8] (co-treatment with NE-100 (10 µM)), the “effect on S1R–BiP dissociation in presence of NE-100” value is “blocks”.

Take `C=C[C@H]1C[N@@]2CC[C@H]1C[C@@H]2[C@@H](O)c1ccnc2ccc(OC)cc12` [Quinidine, reference compound]: the “QT interval, conclusion” value in data set [10] (10 mg/kg and 100 mg/kg i.p., 6 to 10 min after injection) is “dose-dependently prolonged the QT interval”. In data set [10] (10.0 mg/kg i.p. group), the “QT Interval Basal” value turned out to be 46 ± 2. In data set [10] (10.0 mg/kg i.p.), the “QT Interval 3 min” value was 50 ± 2, the “QT Interval 6 min” value is 64 ± 6 and the “QT Interval 10 min” value turned out to be 65 ± 5. For the same compound, in data set [10] (100.0 mg/kg i.p. group), the “QT Interval Basal” value is listed as 47 ± 4. Further, in [10] (100.0 mg/kg i.p.), the “QT Interval 3 min” value is on record as 58 ± 3, the “QT Interval 6 min” value was found to be 84 ± 7 and the “QT Interval 10 min” value is given as 76 ± 4.
